In the test the target is T1, human TRPV1 (Homo sapiens, UniProt Q8NER1).
T1 construct: expressed in transfected cells; host or cells: HEK293-F cells, transient transfection
The test is described as follows: Acid activation assay, ratiometric calcium imaging. It is filed as cell-based. Particulars: HEK293-F cells expressing human TRPV1, Example 56 at 3 μM; for block of TRPV1-mediated increase in intracellular calcium concentration in response to pH 5.5: acid pH 5.5; for block of TRPV1-mediated increase in intracellular calcium concentration in response to capsaicin: capsaicin 1 μM. How it is done: The differential effects of TRPV1 antagonists on capsaicin- or acid-induced responses were verified by ratiometric calcium imaging. Transiently transfected HEK293-F cells expressing human TRPV1 were incubated with 5 μM Fura-2AM for 30 minutes at 37° C. Intracellular calcium concentration was measured on an imaging system consisting of the X-Cite™ 120 Fluorescence Illumination System (EXFO) and a Digital Camera (C4742-95, Hamamatsu Photonics) connected to an Olympus 1×71 microscope. Through the control of Slide Book 4.2 software, fluorescence was measured during excitation at 340 and 380 nm; the ratio of the fluorescence at both excitation wavelengths (F340/F380) was monitored. D-PBS, pH 7.4 (Invitrogen, catalog no. 14287) was used as the extracellular solution. Acidic buffer was prepared by titrating D-PBS, pH 7.4 with 7 N HCl to pH 5.5. Agonists and antagonists were prepared in the pH 7.4 or 5.5 solutions. Rapid solution switch was achieved by using a ValveLink system.
Over the time 1250-second course, the cells were challenged sequentially with solutions containing Example 56 (3 μM), Example 56 (3 μM) plus capsaicin (1 μM), Example 56 (3 μM) plus acid (pH 5.5), or acid (pH 5.5) alone. The black bars above the traces designate addition and duration of solution applications. Spaces between horizontal bars represent periods in which cells were perfused with D-PBS, pH 7.4 alone. […]
On the technique in general: Calcium assays in cells follow changes in intracellular calcium, usually with a dye or a luminescent sensor.

T1 sequence (Q8NER1 whole entry): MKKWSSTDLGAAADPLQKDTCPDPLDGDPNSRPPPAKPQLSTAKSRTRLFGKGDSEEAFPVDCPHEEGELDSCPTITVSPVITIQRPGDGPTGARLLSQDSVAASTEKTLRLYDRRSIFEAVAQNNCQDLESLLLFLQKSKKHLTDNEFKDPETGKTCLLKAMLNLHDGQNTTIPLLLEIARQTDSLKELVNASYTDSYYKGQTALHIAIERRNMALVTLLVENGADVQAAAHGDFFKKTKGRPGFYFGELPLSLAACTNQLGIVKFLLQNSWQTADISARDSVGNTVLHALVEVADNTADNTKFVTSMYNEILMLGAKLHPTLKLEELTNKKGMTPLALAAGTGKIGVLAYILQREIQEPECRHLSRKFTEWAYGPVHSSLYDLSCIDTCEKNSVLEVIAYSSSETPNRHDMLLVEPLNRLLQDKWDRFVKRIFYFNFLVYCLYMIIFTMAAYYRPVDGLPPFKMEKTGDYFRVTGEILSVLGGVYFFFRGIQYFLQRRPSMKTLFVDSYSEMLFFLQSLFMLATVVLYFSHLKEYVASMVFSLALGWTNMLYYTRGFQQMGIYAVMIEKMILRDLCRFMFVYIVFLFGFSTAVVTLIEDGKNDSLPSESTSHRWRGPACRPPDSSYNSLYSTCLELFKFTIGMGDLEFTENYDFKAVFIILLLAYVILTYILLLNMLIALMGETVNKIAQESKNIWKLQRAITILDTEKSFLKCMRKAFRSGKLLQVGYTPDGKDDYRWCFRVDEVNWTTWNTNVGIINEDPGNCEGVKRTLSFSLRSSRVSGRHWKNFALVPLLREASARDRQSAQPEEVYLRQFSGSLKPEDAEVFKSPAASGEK

For “N-[(4R)-2,2-diethyl-6-fluoro-3,4-dihydro-2H-chromen-4-yl]-N-(3-methylisoquinolin-5-yl)urea [Example 56]”, the “block of TRPV1-mediated increase in intracellular calcium concentration in response to pH 5.5” value is recorded as “did not completely block” and the “block of TRPV1-mediated increase in intracellular calcium concentration in response to capsaicin” value is recorded as “completely blocked”.

Turning to “N-[(4R)-2,2-diethyl-8-fluoro-3,4-dihydro-2H-chromen-4-yl]-N-(3-methylisoquinolin-5-yl)urea [Example 62]”, the “block of TRPV1-mediated increase in intracellular calcium concentration in response to pH 5.5” value was “did not completely block” and the “block of TRPV1-mediated increase in intracellular calcium concentration in response to capsaicin” value is recorded as “completely blocked”.

(Values after patent US8604053B2, “TRPV1 antagonists” (AbbVie Inc., priority 2008, dated 2013).)
